Source: PMC5048659 (Arthritis Research & Therapy, 2016)
Entries after “also recorded” stand apart in the source; their conditions may differ.

Columns and labels:
HepG2 cells = assay: Mitochondrial toxicity assay (JC-1 mitochondrial membrane potential); type: cell-based, human
Protocol: HepG2 cells were counted via hemocytometer and diluted into equal volumes of serum-free Opti-MEM (Life Technologies) and JC-1 Staining Solution (Sigma catalog number CS0390) at 300,000 cells/mL in the presence of 2.5 μg/mL JC-1. Cells were incubated at 37 °C and 5 % CO2 for 20 minutes, rinsed once with Hank's Balanced Salt Solution, and resuspended to the same concentration in serum-free Opti-MEM. Cells were then seeded into 96-well black-sided clear-bottom tissue culture plates at 30,000 cells/100 μL/well. Three replicates per experimental condition group were used. Compound was added with the final dimethyl sulfoxide (DMSO) concentration at 0.5 %. After 2 hours at 37 °C and 5 % CO2, medium was aspirated and plates were read on a Gemini EM spectrofluorometer (Molecular Devices). Fluorescence of JC-1 monomers was monitored by excitation at 490 nm and emission at 530 nm (green) and of aggregates by excitation at 525 nm and emission at 590 nm (red). The ratio of J-aggregates to monomers was calculated, with a lower ratio indicating increased cell toxicity. The percent change in mitochondrial membrane potential (Ψm) was calculated as follows: […]

PPARγ = molecular target: T1, PPARγ (Homo sapiens, UniProt P37231); assay: Human PPARγ luciferase reporter assay; type: cell-based; details: reporter cells, 24 hours
T1 sequence (P37231 238-505 limits assumed): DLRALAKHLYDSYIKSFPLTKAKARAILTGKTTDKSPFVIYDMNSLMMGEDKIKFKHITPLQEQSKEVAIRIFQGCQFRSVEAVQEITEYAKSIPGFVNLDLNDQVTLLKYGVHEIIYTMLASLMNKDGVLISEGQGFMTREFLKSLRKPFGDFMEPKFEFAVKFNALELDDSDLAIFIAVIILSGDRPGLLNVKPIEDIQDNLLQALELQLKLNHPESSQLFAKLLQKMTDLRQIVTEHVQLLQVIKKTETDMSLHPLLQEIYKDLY
Protocol: This assay was performed using nonhuman mammalian cells engineered to provide a PPARγ-responsive luciferase reporter gene and constitutive, high levels of PPARγ (Indigo Biosciences catalog number IB00101). Cells were incubated with compounds for 24 hours, and then luciferase activity was measured using a luminometer. Agonist activity was reported as fold activation over a vehicle control. A positive control agonist, rosiglitazone, was included in each batch run to verify cell integrity.

[1] = cited from earlier work
GLUT9 (SLC2A9v2/GLUT9ΔN) = molecular target: T2, GLUT9 (SLC2A9v2/GLUT9ΔN) (Homo sapiens, UniProt Q9NRM0); assay: GLUT9 urate transport in cRNA-injected oocytes; type: cell-based
T2 construct: expressed in transfected cells
T2 sequence (Q9NRM0 1-511 isoform Q9NRM0-2): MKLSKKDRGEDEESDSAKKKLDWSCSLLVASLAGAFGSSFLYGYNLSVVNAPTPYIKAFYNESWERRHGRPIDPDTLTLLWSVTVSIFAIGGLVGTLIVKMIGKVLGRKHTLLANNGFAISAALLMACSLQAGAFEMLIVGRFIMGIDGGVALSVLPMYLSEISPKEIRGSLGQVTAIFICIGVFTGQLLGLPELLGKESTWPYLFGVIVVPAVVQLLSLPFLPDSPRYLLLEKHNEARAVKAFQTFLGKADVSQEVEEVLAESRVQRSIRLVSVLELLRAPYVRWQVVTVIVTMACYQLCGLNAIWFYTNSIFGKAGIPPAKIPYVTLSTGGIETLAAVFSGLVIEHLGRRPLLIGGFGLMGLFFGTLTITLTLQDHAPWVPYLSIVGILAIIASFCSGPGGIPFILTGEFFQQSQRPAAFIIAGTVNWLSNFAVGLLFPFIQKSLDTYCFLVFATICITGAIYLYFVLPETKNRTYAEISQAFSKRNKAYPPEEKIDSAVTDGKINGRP
Protocol: For GLUT9, SLC2A9v2/GLUT9ΔN in pCMV6/neo was linearized with XmaI and NotI and cRNA transcribed using the mMessage mMachine T7 kit (Ambion). Oocytes were injected with either water or 25 ng cRNA and incubated for 3 to 5 days in ND96 buffer. For each point, 10 oocytes were incubated with 100 μM ^14C-uric acid in ND96 buffer with and without test compounds at room temperature for 60 minutes. The oocytes were then washed three to four times in ice-cold ND96 buffer and lysed prior to scintillation counting.

OAT4 = molecular target: T3, OAT4 (Homo sapiens, UniProt Q9NSA0); assay: OAT4 urate transport assay in stably transfected HEK293 cells; type: cell-based; details: 100 μM 14C-urate, 10 min, OAT4-551G cells; mean ± SEM, three experiments; read-out: Potency (IC50) against OAT4
T3 sequence (Q9NSA0 with tags, fused parts or gaps): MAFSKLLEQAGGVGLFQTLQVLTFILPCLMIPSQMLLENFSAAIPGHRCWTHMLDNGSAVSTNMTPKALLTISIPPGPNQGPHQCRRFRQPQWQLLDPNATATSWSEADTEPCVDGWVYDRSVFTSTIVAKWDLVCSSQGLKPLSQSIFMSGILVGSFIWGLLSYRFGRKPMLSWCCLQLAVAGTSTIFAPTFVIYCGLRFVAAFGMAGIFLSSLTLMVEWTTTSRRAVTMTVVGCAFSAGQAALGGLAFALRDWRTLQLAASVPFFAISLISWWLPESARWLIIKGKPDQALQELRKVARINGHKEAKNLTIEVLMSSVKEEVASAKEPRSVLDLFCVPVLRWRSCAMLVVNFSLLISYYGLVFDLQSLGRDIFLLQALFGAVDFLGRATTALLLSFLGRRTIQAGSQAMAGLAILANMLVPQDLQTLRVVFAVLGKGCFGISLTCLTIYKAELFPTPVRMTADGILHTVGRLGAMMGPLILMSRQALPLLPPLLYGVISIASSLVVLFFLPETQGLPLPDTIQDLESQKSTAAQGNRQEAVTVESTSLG
Protocol: Stably transfected HEK293-OAT4-551G cells were used for OAT4 transport activity assays, which were grown for several weeks in media (DMEM with 10 % fetal bovine serum and 1 mM sodium pyruvate) containing 500 μg/mL geneticin sulfate. An isolated clone with high OAT4 activity was selected for activity assays. One day prior to the assay, cells were plated at 200,000 cells/well into each well of white, clear bottom poly-D-lysine-coated assay plates (BD Biosciences).
The cells were assayed on the following day. […] The free urate was removed by aspiration and the cells rinsed three times in 150 μL wash buffer. The cells were then subjected to liquid scintillation counting to measure transported urate. […] Each point represents the mean and standard error of the mean (SEM) from triplicates.

Compound | Mitochondrial toxicity (HepG2 cells; HepG2, up to 300 μM) | PPARγ activation (PPARγ; at 300 μM) | PPARγ activation (PPARγ; up to 100 μM) | Estimated plasma concentration [1] [µM] | Urinary excretion [1] [%] | Lowest concentration reducing mitochondrial membrane potential (HepG2 cells; HepG2, 2 hours) [µM] | EC50 (HepG2 cells; Homo sapiens, HepG2, 2 hours, read-out: Half maximal effective concentration for reduction of mitochondrial membrane potential) [µM] | IC50 (GLUT9 (SLC2A9v2/GLUT9ΔN); 100 μM 14C-uric acid, 60 min, read-out: Potency against GLUT9) [µM] | Effect on GLUT9 urate transport (GLUT9 (SLC2A9v2/GLUT9ΔN); compound at up to 100 μM) | PPARγ activation (PPARγ; at 30 μM) | IC50 (OAT4) [µM]
CCCN(CCC)S(=O)(=O)c1ccc(C(=O)O)cc1 [Probenecid] | no mitochondrial toxicity | slight PPARγ activation | no activation | – | – | – | – | – | – | – | –
CCc1oc2ccccc2c1C(=O)c1cc(Br)c(O)c(Br)c1 [Benzbromarone] | – | – | – | 0.016 to 0.16 | 6 | 0.4 | 1.36 | ~100 | only weak activity; also recorded: inhibited | strongly activated | 3.19 ± 1.04
